Measurements taken from patent EP0302435A1, “Method for augmenting antibody-dependent cellular cytotoxicity” (NEORX CORPORATION, priority 1987, dated 1989).

Tested on: LS-180 target cells
Assay: PMN-ADCC target cell lysis assay (⁵¹Cr release)
Assay type: cell-based, human
Details: for % Cytotoxicity: PMNs pretreated 30 min, E:T 100:1, 3 h ADCC assay; for % Cytotoxicity / augmentation of PMN-mediated IgG₃ ADCC: antibody NR-CO-04; for augmentation of PMN-mediated IgG₃ ADCC: activator pretreatment of PMNs, summary of Table 2
Experimental: Peripheral blood polymorphonuclear leukocytes (PMNs) were obtained from healthy normal human donors. Blood (150 cc) was withdrawn by venipuncture in heparinized tubes and mixed with an equal volume of 3% dextran in phosphate-buffered saline (PBS). After sedimentation at 1 x g for 10 min at room temperature, the leukocyte-rich plasma was layered on top of lymphocyte separation medium (LSM, Organon Technica, Durham, NC). PMNs were purified by treating the PMNs and red blood cell (RBC) pellet with RBC lysing solution (0.800% w/v NH₄Cl, 0.1% w/v KHCO₃, 37.0 mg tetrasodium EDTA in 100 ml water at pH 7.3). After incubating approximately 5 min at room temperature, the volume was increased 3X with PBS and the cells washed twice by centrifugation. After resuspension of the cells in RPMI-5% FCS, the PMNs were used in cytotoxicity assays or were incubated with response modifiers.
An appropriate number of target cells were labeled with 200 µCi ⁵¹Cr (⁵¹Cr-Na₂CrO₃; New England Nuclear, Boston, MA) for 2 h at 37°C, with gentle mixing every 15-30 min. The labeled cells were washed three times with 15 ml RPMI followed by centrifugation at 250 x g for 5 min at room temperature. The final pellet was resuspended in RPMI containing 5% FCS, counted, and diluted to an appropriate concentration.
In a typical assay, effector PMNs at different effector:target ratios were added to wells of a microtiter plate (Falcon Plastics, Oxnard, CA), except for those wells to be used for determination of total and spontaneous release of ⁵¹Cr from target cells. For GM-CSF augmentation, PMNs were generally treated within the microtiter plates by the addition of the lymphokine. The effector cells were either washed before the addition of antibody and target cells, or were left in the presence of lymphokine during the ADCC assay.
NR-CO-04 antibody was added to appropriate wells at a concentration of 1 µg/well (4 µg/ml), and the microtiter plate was then incubated at 37°C for 3 h. […]
Wells used for determination of spontaneous ⁵¹Cr release received labeled target cells alone in 200 µl of RPMI-5% FCS; the wells used for determination of total ⁵¹Cr release received labeled target cells and 200 µl 1.0% NP-40.
After […] incubation, the microtiter plate was centrifuged at 250 x g for 5 min at room temperature, and 125 µl of supernatant was transferred from each well into a separate 12 x 75 mm glass tube. Each tube was then assayed for ⁵¹Cr release with a Beckman 5000 gamma counter.
PMN-ADCC assays were performed in triplicate, according to the procedure described in Example I.E., supra. The % lysis (or percent specific release) is indicative of the level of ADCC of target cells. Test release is the amount of release in wells containing effector cells and target cells.

Row | Molecule | % Cytotoxicity (10⁻⁷ M) [%] | % Cytotoxicity (10⁻⁸ M) [%] | % Cytotoxicity (10⁻⁹ M) [%] | augmentation of PMN-mediated IgG₃ ADCC | % Cytotoxicity (concentration not given) [%] | GM-CSF augmentation of PMN-ADCC (dose-dependent, 1 to 100 μM retinal, summary of Table 4) | low level of PMN-ADCC observed in the absence of GM-CSF stimulation (dose-dependent, summary of Table 4)
1 | fMET-Leu-Phe peptide [fMLP] | 16.2 ± 0.8 | 23.7 ± 1.2 | 15.6 ± 0.8 | less effective than GM-CSF |  |  | 
2 | CCCCCCCCCCCCCC(=O)O[C@@H]1[C@@H](C)[C@@]2(O)[C@@H](C=C(CO)C[C@]3(O)C(=O)C(C)=C[C@@H]23)[C@@H]2C(C)(C)[C@]12OC(C)=O [PMA, phorbol myristate acetate] |  |  |  | less effective than GM-CSF | 18.8 ± 0.6 |  | 
3 | CC1=C(/C=C/C(C)=C/C=C/C(C)=C/C=O)C(C)(C)CCC1 [Retinal] |  |  |  |  |  | abrogated | further depressed
